{"source": "paper PMC2746281", "about": "(PLoS ONE, 2009)", "key": {"KIT Δ27 (murine)": {"target": "T1, KIT Δ27 (murine) (Mus musculus, UniProt P05532, DEL551-559)", "T1 construct": "expressed in transfected cells; host or cells: Ba/F3", "T1 sequence (P05532 with tags, fused parts or gaps isoform P05532-2 DEL547-555)": "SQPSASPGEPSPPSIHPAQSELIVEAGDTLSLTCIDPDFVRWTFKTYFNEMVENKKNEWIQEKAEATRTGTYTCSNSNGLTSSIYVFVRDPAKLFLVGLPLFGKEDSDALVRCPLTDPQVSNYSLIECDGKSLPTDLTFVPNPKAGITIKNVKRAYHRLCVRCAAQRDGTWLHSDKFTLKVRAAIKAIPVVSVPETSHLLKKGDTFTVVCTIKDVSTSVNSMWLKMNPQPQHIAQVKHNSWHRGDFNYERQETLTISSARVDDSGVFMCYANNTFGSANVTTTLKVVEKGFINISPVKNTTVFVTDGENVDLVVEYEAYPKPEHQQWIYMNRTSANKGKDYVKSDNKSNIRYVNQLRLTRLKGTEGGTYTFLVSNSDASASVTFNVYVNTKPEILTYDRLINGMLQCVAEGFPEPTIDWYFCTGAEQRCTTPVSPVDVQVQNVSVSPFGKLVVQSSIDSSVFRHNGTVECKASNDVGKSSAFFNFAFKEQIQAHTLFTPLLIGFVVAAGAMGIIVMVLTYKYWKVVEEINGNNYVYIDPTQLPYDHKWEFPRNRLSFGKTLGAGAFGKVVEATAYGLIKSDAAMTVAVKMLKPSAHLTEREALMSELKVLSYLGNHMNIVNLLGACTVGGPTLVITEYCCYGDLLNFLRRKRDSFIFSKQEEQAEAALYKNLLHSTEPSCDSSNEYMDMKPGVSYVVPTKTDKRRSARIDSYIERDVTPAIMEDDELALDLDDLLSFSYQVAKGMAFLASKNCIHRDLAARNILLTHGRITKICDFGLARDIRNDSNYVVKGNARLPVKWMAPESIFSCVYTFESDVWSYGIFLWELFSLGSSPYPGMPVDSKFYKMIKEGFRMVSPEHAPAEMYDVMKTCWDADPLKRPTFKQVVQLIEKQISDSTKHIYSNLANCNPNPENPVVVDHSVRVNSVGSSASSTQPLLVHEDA", "assay": "Ba/F3 cell proliferation (WST-1), KIT Δ27", "conditions": "Ba/F3 cells expressing the enzyme, read-out: Cell-based assay IC50, KIT Δ27 (murine)"}, "primary BMMCs": {"test_system": "primary BMMCs", "assay": "IL-3-stimulated proliferation of primary BMMCs", "assay_type": "cell-based, mice", "conditions": "Mus musculus, BMMC, primary murine BMMCs", "protocol": "(B) western blotting analysis of HMC-1α155 tyrosine phosphorylation. […] (D) Western blotting analysis of BMMC tyrosine phosphorylation. Cell proliferation was assessed by WST-1 colorimetric assay. […] MW = molecular weight."}, "[1]": {"test_system": "human cord-blood-derived mast cells (CBMC)", "assay": "TNF-α release by IgE-anti IgE-activated CBMC (ELISA)", "assay_type": "cell-based", "conditions": "Mast cell, 4 hours of stimulation", "protocol": "(§1) (see Supporting Information; Methods S1). […] Assays of β-hexosaminidase release and TNF-α release were made by stimulating the CBMC with 1 µg/ml of goat anti-human IgE (Vector Laboratories) for 30 minutes or 4 hours, respectively. β-hexosaminidase was measured in the supernatant and in the sonicated cell pellets and its net release calculated. For TNF-α determination, the cell-free supernatants were collected by centrifugation and frozen at −80°C until determination of mediator content by the use of a specific ELISA kit according to manufacturer's instructions (Coulter, France). All assays were performed in duplicate and counts were repeated twice for each well.\n(§2) Human CBMC were produced by long-term culture of CD34+ progenitors purified from normal cord-blood. […] At the beginning of the culture, rhIL-3 (1 ng/ml) (R&D Systems Europe, France) was also added to induce maximal expansion of haematopoietic progenitors. After 3 days the IL-3 was removed and 4 days later cells were transferred to a complete serum-free medium containing rmSCF at 100 ng/ml, which was renewed every 7 days thereafter. After 8 weeks in culture ≥99% of the cells were identified as being mast cells by May-Grünwald-Giemsa staining of cytocentrifuged samples."}, "PDGFRβ": {"target": "PDGFRβ (Homo sapiens, UniProt P09619)", "sequence (P09619 554-1106)": "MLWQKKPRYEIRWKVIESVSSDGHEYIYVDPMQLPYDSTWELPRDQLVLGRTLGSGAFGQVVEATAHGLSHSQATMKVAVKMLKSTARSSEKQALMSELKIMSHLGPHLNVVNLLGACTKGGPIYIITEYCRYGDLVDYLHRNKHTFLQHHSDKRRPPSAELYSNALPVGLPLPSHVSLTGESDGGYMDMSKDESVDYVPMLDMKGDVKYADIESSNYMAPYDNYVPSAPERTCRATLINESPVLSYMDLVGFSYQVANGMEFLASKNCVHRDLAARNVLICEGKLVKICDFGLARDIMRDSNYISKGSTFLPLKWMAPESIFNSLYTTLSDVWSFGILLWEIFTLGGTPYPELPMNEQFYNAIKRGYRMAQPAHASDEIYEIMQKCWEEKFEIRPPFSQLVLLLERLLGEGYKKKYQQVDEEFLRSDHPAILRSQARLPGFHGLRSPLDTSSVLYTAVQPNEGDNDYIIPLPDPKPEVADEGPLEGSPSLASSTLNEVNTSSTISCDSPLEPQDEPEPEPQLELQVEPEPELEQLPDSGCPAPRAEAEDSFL", "assay": "Recombinant kinase ELISA assay, PDGFRβ", "assay_type": "biochemical", "parameters": "PDGF receptor β (residues 554–1106; BC032224); 6xHN (N); made in house; host or cells: baculovirus, Sf9 insect cells", "conditions": "recombinant human enzyme; ELISA-based assay, poly(Glu,Tyr 4:1) substrate", "protocol": "(§3) Full details for the generation of recombinant human KIT intracellular domain and other protein kinases (including Lyn, platelet derived growth factor receptor β, epidermal growth factor receptor, fibroblast growth factor receptor 1, Src, HCK, PYK, FES, Btk, Bmx, c-Ret, c-Fms, Syk, and c-Met) are provided in the Supplemental Methods (see Supporting Information; Methods S1). Experiments on ABL1, Akt1, protein kinase C-α, insulin-like growth factor receptor 1, and Pim1 were carried out by Proqinase (Germany). All other recombinant protein kinases were performed in-house using an enzyme-linked immunoassay; experimental details are provided in the Supplemental Methods (see Supporting Information; Methods S1)."}, "Bmx": {"target": "T2, Bmx (Homo sapiens, UniProt P51813)", "T2 construct": "Bmx (2–675; BC016652); 6xHN (N); made in house; host or cells: baculovirus, Sf9 insect cells", "T2 sequence (P51813 2-675)": "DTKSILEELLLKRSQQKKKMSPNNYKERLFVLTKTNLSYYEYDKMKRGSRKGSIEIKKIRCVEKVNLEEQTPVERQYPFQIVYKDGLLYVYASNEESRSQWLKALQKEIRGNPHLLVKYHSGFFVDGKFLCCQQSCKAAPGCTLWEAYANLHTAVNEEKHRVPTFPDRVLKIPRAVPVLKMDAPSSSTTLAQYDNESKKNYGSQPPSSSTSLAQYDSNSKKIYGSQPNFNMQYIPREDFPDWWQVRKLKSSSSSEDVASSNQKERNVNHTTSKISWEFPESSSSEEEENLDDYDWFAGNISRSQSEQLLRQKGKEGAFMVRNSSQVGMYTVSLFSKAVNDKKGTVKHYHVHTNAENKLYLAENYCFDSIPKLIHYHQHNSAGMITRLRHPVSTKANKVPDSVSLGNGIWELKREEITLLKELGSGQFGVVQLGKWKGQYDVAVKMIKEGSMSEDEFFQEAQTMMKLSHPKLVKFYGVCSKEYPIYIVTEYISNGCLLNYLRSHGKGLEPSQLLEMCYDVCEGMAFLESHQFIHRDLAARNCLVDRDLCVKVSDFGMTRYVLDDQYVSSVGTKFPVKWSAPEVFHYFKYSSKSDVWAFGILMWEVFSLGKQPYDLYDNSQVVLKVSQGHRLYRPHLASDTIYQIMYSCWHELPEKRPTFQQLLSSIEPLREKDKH", "assay": "Recombinant kinase ELISA assay, Bmx", "assay_type": "biochemical", "conditions": "recombinant human enzyme; ELISA-based assay, poly(Glu,Tyr 4:1) substrate", "protocol": "as §3\n(§4) The sequences encoding PDGF receptor β (residues 554–1106; GenBank accession no. BC032224), Lyn B (2–583; accession no. BC059394), fibroblast growth factor receptor 1 (572–959; accession no. BC018128), Src (2–536; accession no. BC011566), Btk (2–659; accession no. BC109079), Bmx (2–675; accession no. BC016652), c-Ret (713–1114; accession no. BC004257), c-Fms (538–972; BC047531), Syk (2–612; BC011399), Hck (2-526; accession no. BC014435), Fes (2-822; accession no. BC035357), PYK2 (2-1006; accession no. BC042599) and c-Met (949–1398; accession no. lifeseq3489592) were amplified by PCR from IMAGE cDNA clones purchased from Openbiosystems. […]"}, "Jak2": {"target": "Jak2 (Homo sapiens, UniProt O60674)", "sequence (O60674 whole entry)": "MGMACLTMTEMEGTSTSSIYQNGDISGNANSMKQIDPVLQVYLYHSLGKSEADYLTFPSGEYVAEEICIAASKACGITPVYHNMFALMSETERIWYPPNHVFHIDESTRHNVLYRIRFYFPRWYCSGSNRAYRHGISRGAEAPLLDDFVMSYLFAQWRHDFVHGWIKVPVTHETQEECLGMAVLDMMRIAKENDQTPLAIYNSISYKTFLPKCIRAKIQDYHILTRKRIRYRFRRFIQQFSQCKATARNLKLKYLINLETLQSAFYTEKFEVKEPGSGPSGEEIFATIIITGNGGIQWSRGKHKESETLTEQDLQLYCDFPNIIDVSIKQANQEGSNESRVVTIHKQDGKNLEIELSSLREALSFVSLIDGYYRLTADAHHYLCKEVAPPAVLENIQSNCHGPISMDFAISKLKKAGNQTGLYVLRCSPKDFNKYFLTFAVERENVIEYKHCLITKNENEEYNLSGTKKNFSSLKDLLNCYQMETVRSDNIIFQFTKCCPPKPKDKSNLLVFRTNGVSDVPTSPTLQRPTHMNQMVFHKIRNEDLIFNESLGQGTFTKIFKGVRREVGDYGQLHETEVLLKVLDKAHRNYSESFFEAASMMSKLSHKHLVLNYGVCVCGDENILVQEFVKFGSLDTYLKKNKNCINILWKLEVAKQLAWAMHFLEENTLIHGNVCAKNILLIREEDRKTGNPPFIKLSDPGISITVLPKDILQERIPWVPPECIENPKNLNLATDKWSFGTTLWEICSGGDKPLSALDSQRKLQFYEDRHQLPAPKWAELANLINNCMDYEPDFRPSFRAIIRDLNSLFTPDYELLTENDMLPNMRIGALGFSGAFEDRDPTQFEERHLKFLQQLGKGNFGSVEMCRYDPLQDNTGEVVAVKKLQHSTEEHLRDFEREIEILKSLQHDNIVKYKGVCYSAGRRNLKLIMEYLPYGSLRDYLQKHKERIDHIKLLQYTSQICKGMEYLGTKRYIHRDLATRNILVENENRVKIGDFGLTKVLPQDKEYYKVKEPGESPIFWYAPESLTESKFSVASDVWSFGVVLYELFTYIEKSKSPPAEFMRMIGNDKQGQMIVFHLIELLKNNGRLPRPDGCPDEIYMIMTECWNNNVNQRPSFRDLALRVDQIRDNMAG", "assay": "Ba/F3 cell proliferation (WST-1), Jak2", "conditions": "Ba/F3 cells expressing the enzyme, read-out: Cell-based assay IC50, Jak2"}, "[2]": {"test_system": "human cord-blood-derived mast cells (CBMC)", "assay": "FcεRI-mediated degranulation (β-hexosaminidase release) of IgE-anti IgE activated CBMC", "assay_type": "cell-based", "conditions": "Mast cell, 0.5 h, 30 minutes of stimulation", "protocol": "as §1, §2"}, "c-Ret": {"target": "T3, c-Ret (Homo sapiens, UniProt P07949)", "T3 construct": "expressed in transfected cells; host or cells: Ba/F3 (general description; not repeated for this kinase)", "T3 sequence (P07949 29-1114)": "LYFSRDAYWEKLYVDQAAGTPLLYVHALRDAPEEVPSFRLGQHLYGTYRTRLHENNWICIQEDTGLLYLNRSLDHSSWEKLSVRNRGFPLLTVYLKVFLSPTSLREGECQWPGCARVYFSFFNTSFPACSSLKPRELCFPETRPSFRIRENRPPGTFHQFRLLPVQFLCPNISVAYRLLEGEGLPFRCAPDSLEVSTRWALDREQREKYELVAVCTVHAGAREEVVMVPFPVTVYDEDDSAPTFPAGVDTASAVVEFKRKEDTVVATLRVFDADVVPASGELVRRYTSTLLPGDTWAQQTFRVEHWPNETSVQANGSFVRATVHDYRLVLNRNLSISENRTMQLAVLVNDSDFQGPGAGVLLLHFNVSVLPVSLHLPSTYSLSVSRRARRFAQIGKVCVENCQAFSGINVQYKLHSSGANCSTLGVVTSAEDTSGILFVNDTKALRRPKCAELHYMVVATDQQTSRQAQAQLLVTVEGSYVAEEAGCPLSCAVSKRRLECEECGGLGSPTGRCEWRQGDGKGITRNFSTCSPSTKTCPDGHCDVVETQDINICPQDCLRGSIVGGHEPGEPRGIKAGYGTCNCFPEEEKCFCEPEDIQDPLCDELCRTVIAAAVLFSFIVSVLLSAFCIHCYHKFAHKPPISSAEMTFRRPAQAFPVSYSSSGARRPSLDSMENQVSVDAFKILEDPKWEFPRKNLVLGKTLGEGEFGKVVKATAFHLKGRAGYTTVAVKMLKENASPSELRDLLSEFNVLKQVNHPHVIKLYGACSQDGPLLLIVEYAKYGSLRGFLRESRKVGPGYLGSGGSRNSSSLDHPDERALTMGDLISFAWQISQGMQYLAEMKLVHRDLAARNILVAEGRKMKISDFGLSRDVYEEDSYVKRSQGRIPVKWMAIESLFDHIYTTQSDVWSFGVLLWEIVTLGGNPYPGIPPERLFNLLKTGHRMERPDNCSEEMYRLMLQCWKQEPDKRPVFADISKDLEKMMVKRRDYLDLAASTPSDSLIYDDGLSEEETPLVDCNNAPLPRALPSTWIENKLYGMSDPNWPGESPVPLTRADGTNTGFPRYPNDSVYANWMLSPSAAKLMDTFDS", "assay": "Ba/F3 cell proliferation (WST-1), c-Ret", "conditions": "Ba/F3 cells expressing the enzyme, read-out: Cell-based assay IC50, c-Ret"}, "KIT D^814V (murine)": {"target": "T4, KIT D^814V (murine) (Mus musculus, UniProt P05532, D818V)", "T4 construct": "expressed in transfected cells; host or cells: Ba/F3", "assay": "Ba/F3 cell proliferation (WST-1), KIT D814V", "conditions": "Ba/F3 cells expressing the enzyme, read-out: Cell-based assay IC50, KIT D^814V (murine)"}, "Hck": {"target": "T5, Hck (Homo sapiens, UniProt P08631)", "T5 construct": "Hck (2-526; BC014435); 6xHN (N); made in house; host or cells: baculovirus, Sf9 insect cells", "T5 sequence (P08631 23-526 limits assumed)": "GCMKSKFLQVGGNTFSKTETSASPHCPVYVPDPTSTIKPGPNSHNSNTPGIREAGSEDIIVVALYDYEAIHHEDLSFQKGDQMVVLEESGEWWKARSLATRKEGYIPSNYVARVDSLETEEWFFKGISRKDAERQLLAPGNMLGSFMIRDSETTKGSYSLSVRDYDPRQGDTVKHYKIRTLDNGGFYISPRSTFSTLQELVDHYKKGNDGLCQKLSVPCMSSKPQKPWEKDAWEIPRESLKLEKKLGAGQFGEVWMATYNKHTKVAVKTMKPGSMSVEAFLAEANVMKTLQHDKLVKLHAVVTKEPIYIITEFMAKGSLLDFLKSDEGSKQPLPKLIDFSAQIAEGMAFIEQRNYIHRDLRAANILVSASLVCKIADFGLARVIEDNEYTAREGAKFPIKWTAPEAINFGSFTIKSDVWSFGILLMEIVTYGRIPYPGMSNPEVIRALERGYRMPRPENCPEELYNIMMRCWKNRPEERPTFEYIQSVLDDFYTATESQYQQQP", "assay": "Recombinant kinase ELISA assay, Hck", "assay_type": "biochemical", "conditions": "recombinant human enzyme; ELISA-based assay, poly(Glu,Tyr 4:1) substrate", "protocol": "as §3, §4"}}, "data": [{"smiles": "CS(=O)(=O)O.CS(=O)(=O)O.Cc1ccc(NC(=O)c2ccc(CN3CCN(C)CC3)cc2)cc1Nc1nc(-c2cccnc2)cs1", "note": "[masitinib, 4-(4-methylpiperazin-1-ylmethyl)-N-[4-methyl-3-(4-pyridin-3ylthiazol-2-ylamino)phenyl]benzamide-mesylate methane sulfonic acid salt]", "values": [{"measurement": "IC50", "setting": "KIT Δ27 (murine)", "result": "0.005 ± 0.0003", "unit": "µM"}, {"measurement": "IC50", "setting": "primary BMMCs", "result": "> 10", "unit": "µM"}, {"measurement": "inhibition at 0.1 µM", "setting": "[1]; 0.1 µM", "result": 16, "unit": "%"}, {"measurement": "inhibition at 1 µM", "setting": "[1]; 1.0 µM", "result": 40, "unit": "%"}, {"measurement": "inhibition at 10 µM", "setting": "[1]; 10 µM", "result": 68, "unit": "%"}, {"measurement": "IC50", "setting": "PDGFRβ", "result": "0.8 ± 0.12", "unit": "µM"}, {"measurement": "IC50", "setting": "Bmx", "result": "> 10", "unit": "µM"}, {"measurement": "IC50", "setting": "Jak2", "result": "10 ± 0.8", "unit": "µM"}, {"measurement": "inhibition at 0.1 µM", "setting": "[2]; 0.1 µM", "result": 7, "unit": "%"}, {"measurement": "inhibition at 1 µM", "setting": "[2]; 1.0 µM", "result": 18, "unit": "%"}, {"measurement": "inhibition at 10 µM", "setting": "[2]; 10 µM", "result": 35, "unit": "%"}, {"measurement": "IC50", "setting": "c-Ret", "result": "8 ± 1.2", "unit": "µM"}, {"measurement": "IC50", "setting": "KIT D^814V (murine)", "result": "3 ± 0.1", "unit": "µM"}, {"measurement": "IC50", "setting": "Hck", "result": "2 ± 0.2", "unit": "µM"}]}]}
